The test system of this assay is T1, LstiPR2/LstiORco.
T1 construct: full-length LstiPR2 (ORF 1263 bp, printed 421 aa) co-expressed with LstiORco (cRNA 1:1) in Xenopus laevis oocytes, pT7Ts vector; cloned from male antennae; with Odorant receptor coreceptor
As to the kind of experiment: two-electrode voltage clamp, Xenopus oocytes. As to conditions: agonist; co-expressed with LstiORco; holding potential -80 mV; Ringer's buffer pH 7.6. The assay is classed as cell-based, Loxostege sticticalis. An excerpt: two-electrode voltage clamp, Xenopus oocytes on LstiPR2/LstiORco | LstiPR2/LstiORco was sensitive to E11-14:OAc
Background: In two-electrode clamp one electrode senses voltage and the other passes current.

Usually EC50 stands for the concentration at which the effect is half-maximal.

In turn, `CC/C=C/CCCCCCCCCCOC(C)=O` [E11-14:OAc, (E)-11-tetradecenyl acetate] came in with an EC50 of 12.5 µM.

For the origin of these results see article PMC10380584, “Functional Characterization of Pheromone Receptors in the Beet Webworm, Loxostege sticticalis (Lepidoptera: Pyralidae)” (Insects, 2023).
